According to patent US20040202736A1, “Method of ameliorating side-effects of SERMs” (Pharmaton S.A., priority 2003, published 2004):
“Also recorded” adds a separate entry of the source.

Experiments:
[1] = tested on: breast cancer survivors women; experiment: Clinical practice: 1,600 breast cancer survivors treated with tamoxifen, adverse effects; assay type: in vivo
Text: The improvements in recurrence-free survival and in overall survival have been between the ranges reported by the published literature. However, into the total treated group, we have found only one case of endometrial cancer, well differentiated and of small size (table 2).
Many of these women had recently stopped HRT, at the time the diagnosis of breast cancer was made.

[2] = tested on: hot flushes among breast cancer survivors under tamoxifen adjuvant therapy
[3] = tested on: invasive breast cancer; settings: cited from earlier work
[4] = tested on: vasomotor symptoms of patients treated with tamoxifen; experiment: Separate uncontrolled experiences to control vasomotor symptoms of patients treated with tamoxifen; assay type: in vivo, women; settings: given to patients treated with tamoxifen
[5] = usual-care n = 46 (six months), intervention n = 90 (end of study), tamoxifen 20 mg/day, BNO 1055 20 mg twice a day
[6] = usual-care n = 46, intervention n = 90

CC/C(=C(\c1ccccc1)c1ccc(OCCN(C)C)cc1)c1ccccc1 [Tamoxifen, Z-2-[4-(1,2-diphenyl-1-butenyl)phenoxy]-N,N-dimethyl-ethylamine]
patients who reported hot flushes ([1]; postmenopausal patients, tamoxifen 20 mg/day): 25%
patients who reported hot flushes ([1]; premenopausal women, mostly severe, tamoxifen 20 mg/day): up to 74%
withdrawal ([1]; tamoxifen 20 mg/day): < 5%
cases of endometrial cancer ([1]; total treated group (1,600), well differentiated and of small size): one
decline of bimonthly reported numbers of hot flushes from baseline ([2]; baseline vs six months of tamoxifen adjuvant therapy, severe or moderate hot flushes, not significant, P=0.71): 5 to 9%
minor adverse events, number ([2]; during the study): seven
serious events ([2]; during the study): No serious events
Hot Flushes Severe, number of patients [2, 5]: 34
Hot Flushes Severe, proportion of patients [2, 5]: 73.9%
Hot Flushes Moderate, number of patients [2, 6]: 12
Hot Flushes Moderate, proportion of patients [2, 6]: 26.1%
reduction of the risk of invasive breast cancer ([3]; 20 mg/day, 69 months of follow-up): 49%
effect on ER-negative tumors ([3]; 20 mg/day): no effect
incidence of adverse events, including endometrial cancer ([3]; women younger than 50): no increased incidence

Vitamin E
control of vasomotor symptoms / severe hot flushes [4]: very unsatisfactory results; also recorded: failed to reach a satisfactory control

Clc1cccc(Cl)c1N=C1NCCN1 [clonidine]
control of vasomotor symptoms / severe hot flushes [4]: very unsatisfactory results; also recorded: failed to reach a satisfactory control

CC(=O)[C@H]1CC[C@H]2[C@@H]3CCC4=CC(=O)CC[C@]4(C)[C@H]3CC[C@]12C [progesterone]
control of vasomotor symptoms / severe hot flushes [4]: very unsatisfactory results; also recorded: failed to reach a satisfactory control
